Reference: ChEMBL document CHEMBL5143689, “In silico, synthesis and anticancer evaluation of benzamide tryptamine derivatives as novel eEF2K inhibitors” (Bioorg Med Chem Lett, 2022)
The source made the active and inactive calls. The calls are words filed in the database; no cut-off is given here.

Legend:
CCRF-CEM [1] = assay: Antiproliferative activity against human CCRF-CEM cells assessed as inhibition of cell viability measured after 48 hrs by MTT assay; format: functional, cell-based
K562 = assay: Antiproliferative activity against human K562 cells assessed as inhibition of cell viability measured after 48 hrs by MTT assay; format: functional, cell-based; settings: K562, 48 h
U-937 = assay: Antiproliferative activity against human U-937 cells assessed as inhibition of cell viability measured after 48 hrs by MTT assay; format: functional, cell-based; settings: U-937, 48 h
[2] = target: T1, Eukaryotic elongation factor 2 kinase (Homo sapiens, UniProt O00418); assay: Inhibition of eEF2K (unknown origin)
T1 sequence (O00418 whole entry): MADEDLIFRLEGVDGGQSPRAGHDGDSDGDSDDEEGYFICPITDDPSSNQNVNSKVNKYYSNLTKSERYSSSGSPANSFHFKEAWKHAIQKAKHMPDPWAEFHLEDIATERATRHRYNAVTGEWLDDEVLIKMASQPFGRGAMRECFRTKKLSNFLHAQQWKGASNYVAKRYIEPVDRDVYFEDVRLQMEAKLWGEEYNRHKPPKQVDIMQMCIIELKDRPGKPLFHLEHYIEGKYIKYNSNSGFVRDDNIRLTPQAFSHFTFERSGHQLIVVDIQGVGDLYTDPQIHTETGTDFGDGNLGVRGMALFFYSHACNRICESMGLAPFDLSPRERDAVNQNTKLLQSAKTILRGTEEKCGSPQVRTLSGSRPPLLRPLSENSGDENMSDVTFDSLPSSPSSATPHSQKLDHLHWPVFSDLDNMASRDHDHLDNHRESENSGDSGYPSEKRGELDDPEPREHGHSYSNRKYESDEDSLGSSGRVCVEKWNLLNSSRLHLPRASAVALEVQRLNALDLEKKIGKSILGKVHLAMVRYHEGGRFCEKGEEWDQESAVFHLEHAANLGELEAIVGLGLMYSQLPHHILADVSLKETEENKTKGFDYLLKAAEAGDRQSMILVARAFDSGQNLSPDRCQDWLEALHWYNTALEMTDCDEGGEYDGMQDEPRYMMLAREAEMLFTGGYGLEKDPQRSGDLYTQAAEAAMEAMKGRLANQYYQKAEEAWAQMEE

[3] = target: T2, Eukaryotic elongation factor 2 kinase (Homo sapiens) (UniProt O00418); assay: Inhibition of eEF2K in human CCRF-CEM cells assessed as decrease in phosphorylation of eEF2 at threonine 56 residue up to 16 uM measured after 48 hrs by Western blot analysis; format: cell-based
T2 sequence (whole entry): T1 sequence (O00418 whole entry)

[4] = target: T2, Eukaryotic elongation factor 2 kinase (Homo sapiens); assay: Inhibition of eEF2K in human CCRF-CEM cells assessed as decrease in phosphorylation of eEF2 at threonine 58 residue up to 16 uM measured after 48 hrs by Western blot analysis; format: cell-based
[5] = target: T2, Eukaryotic elongation factor 2 kinase (Homo sapiens); assay: Inhibition of eEF2K in human CCRF-CEM cells assessed as decrease in phosphorylation of Akt up to 16 uM measured after 48 hrs by Western blot analysis; format: cell-based
[6] = target: T2, Eukaryotic elongation factor 2 kinase (Homo sapiens); assay: Inhibition of eEF2K in human CCRF-CEM cells assessed as decrease in phosphorylation of MAPK up to 16 uM measured after 48 hrs by Western blot analysis; format: cell-based
[7] = target: T2, Eukaryotic elongation factor 2 kinase (Homo sapiens); assay: Inhibition of eEF2K in human CCRF-CEM cells assessed as decrease in phosphorylation of mTOR up to 16 uM measured after 48 hrs by Western blot analysis; format: cell-based
[8] = target: T2, Eukaryotic elongation factor 2 kinase (Homo sapiens); assay: Inhibition of eEF2K in human CCRF-CEM cells assessed as decrease in MAPK protein expression level up to 16 uM measured after 48 hrs by Western blot analysis; format: cell-based
[9] = target: T2, Eukaryotic elongation factor 2 kinase (Homo sapiens); assay: Inhibition of eEF2K in human CCRF-CEM cells assessed as decrease in phosphorylation of eEF2 at 5 uM measured up to 48 hrs by Western blot analysis; format: cell-based
[10] = target: T2, Eukaryotic elongation factor 2 kinase (Homo sapiens); assay: Inhibition of eEF2K in human CCRF-CEM cells assessed as decrease in phosphorylation of Akt at 5 uM measured up to 48 hrs by Western blot analysis; format: cell-based
[11] = target: T2, Eukaryotic elongation factor 2 kinase (Homo sapiens); assay: Inhibition of eEF2K in human CCRF-CEM cells assessed as decrease in phosphorylation of MAPK at 5 uM measured up to 48 hrs by Western blot analysis; format: cell-based
[12] = target: T2, Eukaryotic elongation factor 2 kinase (Homo sapiens); assay: Inhibition of eEF2K in human CCRF-CEM cells assessed as decrease in phosphorylation of mTOR at 5 uM measured up to 48 hrs by Western blot analysis; format: cell-based
CCRF-CEM [13] = assay: Induction of apoptosis in human CCRF-CEM cells assessed as increase in cleaved caspase-9 level at 5 uM by Western blot analysis; format: functional, cell-based; settings: time <= 48.0 hrs, TDE = time-dependent effect
CCRF-CEM [14] = assay: Induction of apoptosis in human CCRF-CEM cells assessed as increase in cleaved caspase-8 level at 5 uM by Western blot analysis; format: functional, cell-based; settings: time <= 48.0 hrs, TDE = time-dependent effect
CCRF-CEM [15] = assay: Induction of apoptosis in human CCRF-CEM cells assessed as increase in cleaved caspase-3 level at 5 uM by Western blot analysis; format: functional, cell-based; settings: time <= 48.0 hrs, TDE = time-dependent effect
CCRF-CEM [16] = assay: Induction of apoptosis in human CCRF-CEM cells assessed as increase in cleaved PARP level at 5 uM by Western blot analysis; format: functional, cell-based; settings: time <= 48.0 hrs, TDE = time-dependent effect
CCRF-CEM [17] = assay: Induction of cell cycle arrest in human CCRF-CEM cells assessed as accumulation at G0/G1 phase at 2 uM incubated for 48 hrs by PI staining based flow cytometry analysis (reference value: 71.3%); format: functional
CCRF-CEM [18] = assay: Induction of cell cycle arrest in human CCRF-CEM cells assessed as accumulation at G0/G1 phase at 4 uM incubated for 48 hrs by PI/ RNaseA staining based flow cytometry analysis (reference value: 71.3%); format: functional
CCRF-CEM [19] = assay: Induction of cell cycle arrest in human CCRF-CEM cells assessed as accumulation at G0/G1 phase at 8 uM incubated for 48 hrs by PI/ RNaseA staining based flow cytometry analysis (reference value: 71.3%); format: functional
CCRF-CEM [20] = assay: Induction of apoptosis in human CCRF-CEM cells assessed as early apoptotic cells up to 8 uM measured after 48 hrs by AnnexinV-FITC/PI staining based flow cytometry method; format: functional
CCRF-CEM [21] = assay: Induction of apoptosis in human CCRF-CEM cells assessed as late apoptotic cells up to 8 uM measured after 48 hrs by AnnexinV-FITC/PI staining based flow cytometry method; format: functional

SMILES	IC50 (CCRF-CEM [1])	IC50 (K562)	IC50 (U-937)	further results
COc1ccc2[nH]cc(CCNCC(C)C(=O)Nc3ccccc3)c2c1 (racemic)	9.16 µM	37.5 µM	> 50 µM	
CC(CNCCc1c[nH]c2ccccc12)C(=O)Nc1ccccc1 (racemic)	3.9 µM	7 µM	11.4 µM	
COc1ccc2[nH]cc(CCNCCC(=O)Nc3ccccc3N)c2c1	4.71 µM	16.5 µM	11.2 µM	
Cc1ccc(NC(=O)CCNCCc2c[nH]c3ccccc23)c(N)c1	> 50 µM	> 50 µM	> 50 µM	
COc1ccc2[nH]cc(CCNCC(C)C(=O)Nc3ccc(C)cc3N)c2c1 (racemic)	> 50 µM	39.2 µM	> 50 µM	
O=C(Nc1ccc(F)cc1F)N1CCCN(Cc2ccccc2)CC1				IC50 [2]: 0.032 µM
COc1ccc2[nH]cc(CCNCCC(=O)Nc3ccccc3)c2c1	9.79 µM	7.83 µM	15.2 µM	
O=S(=O)(c1ccc(Cl)cc1)C1(S(=O)(=O)c2ccc(Cl)cc2)CC1				IC50 [2]: 0.069 µM
COc1ccc2[nH]cc(CCNCCC(=O)Nc3ccc(C)cc3N)c2c1	> 50 µM	> 50 µM	> 50 µM	
O=C(CCNCCc1c[nH]c2ccc(Cl)cc12)Nc1ccccc1	1.63 µM	3.54 µM	2.12 µM	inhibition [3]: Active; inhibition [4]: Active; inhibition [5]: Active; inhibition [6]: Active; inhibition [7]: Active; inhibition [8]: Active; inhibition [9]: Active; inhibition [10]: Active; inhibition [11]: Active; inhibition [12]: Active; Activity (CCRF-CEM [13]): Tde; Activity (CCRF-CEM [14]): Tde; Activity (CCRF-CEM [15]): Tde; Activity (CCRF-CEM [16]): Tde; Activity (CCRF-CEM [17]): 80.8%; Activity (CCRF-CEM [18]): 89.7%; Activity (CCRF-CEM [19]): 92.3%; Activity (CCRF-CEM [20]): 0.021%; Activity (CCRF-CEM [21]): 23.1%
O=C1CC(c2ccccc2)c2cccc(N3CCCC3)c21 (stereo unspecified)				IC50 [2]: 0.23 µM
Nc1cc(F)ccc1NC(=O)CCNCCc1c[nH]c2ccccc12	6.2 µM	> 50 µM	> 50 µM	
CC(CNCCc1c[nH]c2ccccc12)C(=O)Nc1ccccc1N (racemic)	4.45 µM	33.8 µM	> 50 µM	
COc1ccc2[nH]cc(CCNCCC(=O)Nc3ccc(C)cc3[N+](=O)[O-])c2c1	14.5 µM	48.1 µM	> 50 µM	
Cc1ccc(C2=NC(C)(O)CC(C(C)C)[Se]2)cc1 (stereo unspecified)				IC50 [2]: 1.5 µM
